What all share (test): in vitro antibacterial activity, MIC microdilution
In general terms: Dilution methods test growth across graded concentrations, often in twofold steps.

The test system of assay [1] is E. faecalis clin. isol. (L 502). The class given is cell-based, Enterococcus faecalis. To be noted: for MIC: E. faecalis clin. isol. (L 502), Mueller-Hinton broth, 0.01% bovine serum albumin, 37° C., 18-24 hours. As for the experimental part:
(§1) The in vitro antibacterial activity of the compounds is determined by means of standard […] tests in microtiter. Iso-Sensitest broth (Oxoid) is used for all bacteria except streptococci (Todd-Wewitt broth, Difco) and enterococci (Mueller-Hinton, Difco). Broth cultures are diluted so that the final inoculum was about 5×10^5 cfu/ml (colony forming units per ml). All broth microdilution MICs are performed in the presence of 0.01% bovine serum albumin (Pentax fraction V, Sigma).

Assay [2] has as its system Strep. pneumoniae UC41 (L 44). The class given is cell-based. To be noted: Todd-Wewitt broth, 0.01% bovine serum albumin, 37° C., 18-24 hours. How it is done: as §1
Assay [3] relates to s. aureus clin. isol. (L 561). The class given is cell-based. To be noted: Iso-Sensitest broth, 0.01% bovine serum albumin, 37° C., 18-24 hours. How it is done:
as §1

The subject of assay [4] is S. epidermidis ATCC 12,228 (L 147). The class given is cell-based. Conditions: Iso-Sensitest broth, 0.01% bovine serum albumin, 37° C., 18-24 hours. As for the experimental part: as §1
Assay [5] deals with S. haemolyticus clin, isol. (L 602). The class given is cell-based. Conditions: Iso-Sensitest broth, 0.01% bovine serum albumin, 37° C., 18-24 hours. As for the experimental part:
as §1

Assay [6] has as its system Staph. aurevi Tour (L 165). The class given is cell-based. Conditions: Iso-Sensitest broth, 0.01% bovine serum albumin, 37° C., 18-24 hours. As for the experimental part:
as §1

The test system of assay [7] is Enterococcus faecalis ATCC 7,080 (L 149). The class given is cell-based. Conditions: Mueller-Hinton broth, 0.01% bovine serum albumin, 37° C., 18-24 hours. As for the experimental part: as §1
Assay [8] relates to S. epidermidis clin. isol. (L 533). The class given is cell-based. Conditions: Iso-Sensitest broth, 0.01% bovine serum albumin, 37° C., 18-24 hours. How it is done: as §1
The subject of assay [9] is Strep. pyogenes C203 (L 49). The class given is cell-based. Conditions: Todd-Wewitt broth, 0.01% bovine serum albumin, 37° C., 18-24 hours. As for the experimental part:
(§2) The in vitro antibacterial activity of the compounds is determined by means of standard […] tests in microtiter. Iso-Sensitest broth (Oxoid) is used for all bacteria except streptococci (Todd-[…] broth, Difco) and enterococci (Mueller-Hinton, Difco). Broth cultures are diluted so that the final inoculum was about 5×10^5 cfu/ml (colony forming units per ml).

Another assay concerns s. aureus Smith (L 819). The class given is cell-based. Conditions: Iso-Sensitest broth, 0.01% bovine serum albumin, 37° C., 18-24 hours. As for the experimental part:
as §2

As to teicoplanin, the MIC in [1] was more than 128 mg/1; in assay [2], 0.13 mg/1; in assay [3] it was 8 mg/1; in assay [4], 8 mg/1; in assay [5], 32 mg/1; in assay [6], 0.13 mg/1. The MIC in assay [7] is on record as 0.13 mg/1; in [8], 8 mg/1; in [9], 0.13 mg/1; against s. aureus Smith (L 819), 0.25 mg/1.
For `N[C@H]1C(=O)N[C@@H]2Cc3ccc(c(Cl)c3)Oc3cc4cc(c3O)Oc3ccc(cc3Cl)[C@@H](O)[C@@H]3NC(=O)[C@H](NC(=O)[C@@H]4NC(=O)[C@@H](NC2=O)c2cc(O)cc(c2)Oc2cc1ccc2O)c1ccc(O)c(c1)-c1c(O)cc(O)cc1[C@@H](C(=O)O)NC3=O` [teicoplanin aglycon], the MIC was more than 128 mg/1 in assay [1]; 0.13 mg/1 in [2]; 0.13 mg/1 in assay [3]; 0.06 mg/1 in assay [4]; 0.25 mg/1 in assay [5]; 0.13 mg/1 in [6]. The MIC in [7] worked out at 0.13 mg/1; in [8] it was 0.016 mg/1; in [9], 0.13 mg/1; against s. aureus Smith (L 819), 0.06 mg/1.
As for “(L-phenylalanyl)^3 -(D-lysyl)^15 -aglucoteicoplanin dalbaheptide methyl ester”, the MIC in [1] turned out to be 16 mg/1; in assay [2] it was 0.13 mg/1; in assay [3] it was 0.06 mg/1; in assay [4], 0.13 mg/1; in assay [5], 0.5 mg/1; in assay [6], 0.13 mg/1. For the same molecule, the MIC is recorded as 0.5 mg/1 in assay [7], 0.13 mg/1 in assay [8], 0.25 mg/1 in assay [9] and 0.13 mg/1 with s. aureus Smith (L 819). Moreover, the “activity against a clinical isolate of Enterococcus faecalis (in words)” value in [1] (clinical isolate of Enterococcus faecalis) is given as “surprisingly active”.

Values taken from patent publication US5674840A, “Synthetic aglucodalbaheptide antibiotics” (Gruppo Lepetit SpA, priority 1993, dated 1997).
